Measurements from US8993606B2, “Oral formulations for treating metal overload” (FerroKin BioSciences, Inc., priority 2011, dated 2015).
Read-outs that look alike come from different tables or passages of the source.

How the values were obtained:
[1] = Example 8: single-dose study in healthy human subjects 3-16 mg/kg (PK); type: in vivo; settings: for half-life / AUC(0-t) / AUC(0-inf) / Cmax / Tmax: male, human, plasma; for AUC(0-t) / Cmax / Tmax: mean of 3 subjects
Text: (§1) Example 8 was a double-blind, placebo-controlled single dose-escalating study in healthy subjects. Men between the ages of 18-45 years qualified to participate if they were able to voluntarily give consent and had no clinically significant abnormal findings at the screening evaluation. Specifically, subjects had blood pressure in the normal range, ECG and clinical laboratory values within normal limits, tested negative for drugs of abuse and had not recently donated blood. Subjects were also HIV, Hepatitis B, and Hepatitis C negative and agreed to use an approved method of contraception during the study.
(§2) The objectives of this study were to assess the safety, tolerability, and pharmacokinetics of ascending single doses of Compound 1 compared to placebo. Additionally, dose proportionality and pharmacodynamics of Compound 1 were assessed. Four doses of Compound 1 (3, 6, 10, and 16 mg/kg), in capsule form, were evaluated in this study. Following screening, subjects in a given cohort were randomly assigned to receive either Compound 1 or placebo. In the first cohort, 3 subjects received […] and 2 received placebo; in each of the subsequent remaining 3 cohorts, 3 subjects received the next higher dose of Compound 1 and 1 received placebo. Subjects were dosed and then confined to the clinical research unit for 24 hours to conduct safety and pharmacokinetic assessments. Subjects were released from the clinic on Day 2 and returned daily for follow-up visits for 5 days post-dosing.
All 12 subjects who received a dose of Compound 1 were included in the analysis of pharmacokinetic parameters. All 17 subjects enrolled in the study were included in the analysis of pharmacodynamics.
Blood samples for determination of total (free and iron bound complex) plasma Compound 1 concentrations were collected on Day 1 at pre-dose (within 60 minutes prior to dose administration) and then at 0.25, 0.5, 0.75, 1, 1.5, 2, 2.5, 3, 3.5, 4, 8, 12 hours post-dose; on Day 2 at 24 and 36 hours post-dose; on Day 3 at 48 hours post-dose, on Day 4 at 72 hours post-dose; and on Day 5 at 96 hours post-dose.
Total urine collection for pharmacokinetic and pharmacodynamic assessment was performed at pre-dose and then for intervals 0-4, 4-8, 8-12, 12-24 hours post-dose. Collection of total urine for 24 hours post-dose for pharmacokinetic analysis was complete for all subjects who received a dose of Compound 1. It was noted, however, that Subject R105 (placebo) voided into the toilet once (at 3 minutes post-dose) during the 0-4 hour post-dose urine collection interval.

[2] = tested on: healthy subjects; assay: Safety: single-dose study in healthy subjects (3, 6, 10, 16 mg/kg); type: in vivo; settings: for Arthralgia / Colitis / Flatulence / Gastroenteritis / Headache / Somnolence / Total Number (%) of Subjects Experiencing Adverse Events / Total Number of Subjects Experiencing NO Adverse Events / Upper respiratory tract infection: 3 subjects
Text: as §1, §2
All 17 enrolled subjects completed the study: Twelve received a single dose of Compound 1 (3, 6, 10, and 16 mg/kg) and 5 received placebo. […] Treatment-emergent adverse events (TEAEs) were reported for 5 of the 12 subjects receiving Compound 1 (Table 28 and 29). A total of 9 AEs were reported; 8 treatment-emergent, and 1 pre-dose, all in subjects receiving Compound 1. […] Additionally, there were no clear differences in safety as evaluated by clinical laboratory assessments, vital sign measurements, and ECG parameters between subjects who had received Compound 1 compared with those who received placebo, and no apparent dose-related trends in these safety assessments in subjects who received Compound 1.

[3] = single oral dose 10 mg/kg, mean
[4] = single oral dose 16 mg/kg, mean

Structure (SMILES): COCCOCCOCCOc1cccc(C2=N[C@@](C)(C(=O)O)CS2)c1O [Compound 1, (S)-4,5-Dihydro-2-[2-hydroxy-3-(3,6,9-trioxadecyloxy)phenyl]-4-methyl-4-thiazolecarboxylate magnesium hydroxide]
- dose dependence of mean Cmax and AUC ([1]; 3-16 mg/kg): linear across the dose range
- total fraction of administered drug excreted in urine over 24 hour, range ([1]; across all 4 dose levels): 19-83%
- total fraction of administered drug excreted in urine over 24 hour, average ([1]; all 4 dose levels, standard deviation 18%): 59%
- half-life ([1]; oral, 11 of 12 subjects, 3-16 mg/kg, read-out: median t1/2 (converted)): 7.32 h
- half-life ([1]; oral, 11 of 12 subjects, 3-16 mg/kg, read-out: t1/2, range): 3.77 to 35.2 h
- half-life ([1]; oral, 11 of 12 subjects, 3-16 mg/kg, standard deviation 10.1, read-out: mean t1/2 (converted)): 12.8 h
- AUC(0-t) ([1]; po, 3 mg/kg, single oral dose 3 mg/kg, read-out: AUC0-24): 12100 ng·h/mL
- AUC(0-t) ([1]; po, 3 mg/kg, single oral dose 3 mg/kg, read-out: AUC0-t): 12100 ng·h/mL
- half-life ([1]; po, 3 mg/kg, single oral dose 3 mg/kg, mean, read-out: t1/2 (converted)): 4.4 h
- AUC(0-t) ([1]; po, 6 mg/kg, single oral dose 6 mg/kg, read-out: AUC0-24): 24700 ng·h/mL
- AUC(0-t) ([1]; po, 6 mg/kg, single oral dose 6 mg/kg, read-out: AUC0-t): 25300 ng·h/mL
- half-life ([1]; po, 6 mg/kg, single oral dose 6 mg/kg, mean, read-out: t1/2 (converted)): 15.4 h
- AUC(0-t) ([1]; po, 10 mg/kg, single oral dose 10 mg/kg, read-out: AUC0-24): 42700 ng·h/mL
- AUC(0-t) ([1]; po, 10 mg/kg, single oral dose 10 mg/kg, read-out: AUC0-t): 43400 ng·h/mL
- half-life ([1]; po, 10 mg/kg, single oral dose 10 mg/kg, mean, read-out: t1/2 (converted)): 16.1 h
- AUC(0-t) ([1]; po, 16 mg/kg, single oral dose 16 mg/kg, read-out: AUC0-24): 74600 ng·h/mL
- AUC(0-t) ([1]; po, 16 mg/kg, single oral dose 16 mg/kg, read-out: AUC0-t): 75400 ng·h/mL
- half-life ([1]; po, 16 mg/kg, single oral dose 16 mg/kg, mean, read-out: t1/2 (converted)): 16.1 h
- AUC(0-inf) ([1]; single oral dose 3 mg/kg, mean): 12200 ng·h/mL
- Cmax ([1]; single oral dose 3 mg/kg): 5410 ng/mL
- Tmax ([1]; single oral dose 3 mg/kg): 1.33 h
- AUC(0-inf) ([1]; single oral dose 6 mg/kg, mean): 26600 ng·h/mL
- Cmax ([1]; single oral dose 6 mg/kg): 12200 ng/mL
- Tmax ([1]; single oral dose 6 mg/kg): 0.92 h
- AUC(0-inf) [1, 3]: 43600 ng·h/mL
- Cmax ([1]; single oral dose 10 mg/kg): 16600 ng/mL
- Tmax ([1]; single oral dose 10 mg/kg): 1.17 h
- AUC(0-inf) [1, 4]: 75600 ng·h/mL
- Cmax ([1]; single oral dose 16 mg/kg): 34800 ng/mL
- Tmax ([1]; single oral dose 16 mg/kg): 1 h
- kel ([1]; single oral dose 3 mg/kg, mean): 0.1595 h⁻¹
- kel ([1]; single oral dose 6 mg/kg, mean): 0.0469 h⁻¹
- kel [1, 3]: 0.0562 h⁻¹
- kel [1, 4]: 0.0779 h⁻¹
- Arthralgia ([2]; 3 mg/kg): 0 Number (%) Subjects
- Colitis ([2]; 3 mg/kg): 0 Number (%) Subjects
- Flatulence ([2]; 3 mg/kg): 0 Number (%) Subjects
- Gastroenteritis ([2]; 3 mg/kg): 1 (33%) Number (%) Subjects
- Headache ([2]; 3 mg/kg): 0 Number (%) Subjects
- Somnolence ([2]; 3 mg/kg): 1 (33%) Number (%) Subjects
- Total Number (%) of Subjects Experiencing Adverse Events ([2]; 3 mg/kg): 1 (33%) Number (%)
- Total Number of Subjects Experiencing NO Adverse Events ([2]; 3 mg/kg): 2 (67%)
- Upper respiratory tract infection ([2]; 3 mg/kg): 0 Number (%) Subjects
- Arthralgia ([2]; 6 mg/kg): 1 (33%) Number (%) Subjects
- Colitis ([2]; 6 mg/kg): 0 Number (%) Subjects
- Flatulence ([2]; 6 mg/kg): 0 Number (%) Subjects
- Gastroenteritis ([2]; 6 mg/kg): 0 Number (%) Subjects
- Headache ([2]; 6 mg/kg): 0 Number (%) Subjects
- Somnolence ([2]; 6 mg/kg): 0 Number (%) Subjects
- Total Number (%) of Subjects Experiencing Adverse Events ([2]; 6 mg/kg): 1 (33%) Number (%)
- Total Number of Subjects Experiencing NO Adverse Events ([2]; 6 mg/kg): 2 (67%)
- Upper respiratory tract infection ([2]; 6 mg/kg): 1 (33%) Number (%) Subjects
- Colitis ([2]; 10 mg/kg): 0 Number (%) Subjects
- Flatulence ([2]; 10 mg/kg): 0 Number (%) Subjects
- Gastroenteritis ([2]; 10 mg/kg): 0 Number (%) Subjects
- Headache ([2]; 10 mg/kg): 0 Number (%) Subjects
- Somnolence ([2]; 10 mg/kg): 0 Number (%) Subjects
- Total Number (%) of Subjects Experiencing Adverse Events ([2]; 10 mg/kg): 0 Number (%)
- Total Number of Subjects Experiencing NO Adverse Events ([2]; 10 mg/kg): 3 (100%)
- Upper respiratory tract infection ([2]; 10 mg/kg): 0 Number (%) Subjects
- Arthralgia ([2]; 16 mg/kg): 0 Number (%) Subjects
- Colitis ([2]; 16 mg/kg): 1 (33%) Number (%) Subjects
- Flatulence ([2]; 16 mg/kg): 1 (33%) Number (%) Subjects
- Headache ([2]; 16 mg/kg): 1 (33%) Number (%) Subjects
- Somnolence ([2]; 16 mg/kg): 0 Number (%) Subjects
- Total Number (%) of Subjects Experiencing Adverse Events ([2]; 16 mg/kg): 3 (100%) Number (%)
- Total Number of Subjects Experiencing NO Adverse Events ([2]; 16 mg/kg): 0
- Upper respiratory tract infection ([2]; 16 mg/kg): 0 Number (%) Subjects
- tolerability ([2]; single dose 3, 6, 10, 16 mg/kg): well tolerated
- deaths, SAEs, withdrawals due to AEs ([2]; single dose 3-16 mg/kg): no deaths, no serious adverse events (SAEs), and no withdrawals due to AEs
- subjects with treatment-emergent adverse events (TEAEs) ([2]; single dose 3-16 mg/kg): 5 of the 12
- total AEs reported ([2]; single dose 3-16 mg/kg): 9 AEs
- treatment-emergent AEs ([2]; single dose 3-16 mg/kg): 8
